For one experiment, the system named is Male Wistar rats. The experiment can be described thus: Object recognition task model. The class given is in vivo. Conditions: rat, 0.1 mg/kg, p.o. On the procedure:
The cognition-enhancing properties of compounds of this invention were estimated using an animal model of cognition i.e., object recognition task.
Male Wistar rats (˜230-280 grams) were used as experimental animals. Four animals were housed in each cage. Animals were kept on 20% food deprivation before one day and given water ad libitum throughout the experiment and maintained on a 12 hours light/dark cycle. The rats were habituated to individual arenas for […] in the absence of any objects.
One group of 12 rats received vehicle (1 mL/kg) orally and another set of animals received compound of the formula (I) orally thirty minutes prior to familiar (T1) and choice trial (T2).
The experiment was carried out in a 50×50×50 cm open field made up of acrylic. During the familiarization phase (T1), the rats were placed individually in the open field for 3 minutes, in which two identical objects (plastic bottles, 12.5 cm height×5.5 cm diameter) covered in yellow masking tape alone (a1 and a2) were positioned in two adjacent corners (10 cm from the walls). After 24 hours of the (T1) trial, the same rats were placed in the same arena as they were placed in T1 trial. During the choice phase (T2) rats were allowed to explore the open field for 3 minutes in presence of one familiar object (a3) and one novel object (b) (Amber color glass bottle, 12 cm high and 5 cm in diameter). During the T1 and T2 trial, explorations of each object (defined as sniffing, licking, chewing or having moving vibrissae whilst directing the nose towards the object at a distance of less than 1 cm) were recorded separately by stopwatch.
T1 is the total time spent exploring the familiar objects (a1+a2).
T2 is the total time spent exploring the familiar object and novel object (a3+b).

Another experiment addresses T1, recombinant human 5-HT2A (Homo sapiens, UniProt P28223).
T1 construct: purchased Perkin Elmer ES-313-M400UA
Description: Determination of 5-HT2A binding ([3H]-Ketanserin radioligand, membranes). The note with it: human 5-HT2A membranes, [3H]-Ketanserin 1.75 nM. Here is the method:
Membrane preparation from recombinant human 5-HT2A cell line (Cat no. ES-313-M400UA) and radio ligand Ketanserin Hydrochloride, [Ethylene-^3H]-(R-41468) (Cat no. NET791250UC) were purchased from Perkin Elmer. All other reagents used in buffer preparation were purchased from Sigma. The final ligand concentration was 1.75 nM; non-specific determinant was 1-NP [10 μM] and 5-HT2A membrane protein (5 μg/well). 1-NP was used as a positive control. Reactions were carried out in 67 mM Tris pH 7.6 containing 0.5 mM EDTA buffer for 60 minutes at 25° C. Reaction was stopped by rapid filtration followed by six washes of the binding mixture using 96 well harvest plate (Millipore Cat no. MSFBNXB50) pre coated with 0.33% polyethyleneimine. The plate was dried and the bound radioactivity collected on the filters was determined by scintillation counting using MicroBeta TriLux. Radio ligand binding in the presence of non-labeled compound was expressed as a percent of the total binding and plotted against the log concentration of the compound. Ki values were determined using a nonlinear, iterative curve-fitting computer program of Graph pad Prism 4 software.

SMILES strings stand for the structures. pKi: −log10 of the molar value.

T1 sequence (P28223 whole entry): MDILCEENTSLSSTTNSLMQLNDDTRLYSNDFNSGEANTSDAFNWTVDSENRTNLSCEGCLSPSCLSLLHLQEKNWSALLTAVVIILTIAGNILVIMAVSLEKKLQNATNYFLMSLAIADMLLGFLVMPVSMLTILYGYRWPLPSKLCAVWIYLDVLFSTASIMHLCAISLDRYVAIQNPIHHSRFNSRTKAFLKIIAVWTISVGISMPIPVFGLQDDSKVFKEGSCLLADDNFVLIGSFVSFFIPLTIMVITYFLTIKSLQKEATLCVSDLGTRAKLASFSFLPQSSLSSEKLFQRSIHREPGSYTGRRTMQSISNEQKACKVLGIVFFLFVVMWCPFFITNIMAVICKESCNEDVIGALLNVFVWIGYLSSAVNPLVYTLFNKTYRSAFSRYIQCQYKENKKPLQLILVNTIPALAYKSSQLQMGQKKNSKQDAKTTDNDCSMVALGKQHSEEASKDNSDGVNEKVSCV

In the case of `Cl.O=S(=O)(c1ccccc1)c1ccc2c(c1)OCCN2C1CCNCC1F` (single isomer, unassigned; peak iii) [Example 1, 7-Phenylsulfonyl-4-(3-fluoropiperidin-4-yl)-3,4-dihydro-2H-benzo[1,4]oxazine hydrochloride (Peak III)], in the experiment on Male Wistar rats (choice trial T2), the “Exploration time mean ± S.E.M, Familiar object” value came to 7.03 ± 1.1 s and the “Exploration time mean ± S.E.M, Novel object” value turned out to be 12.16 ± 0.72 s. For the same compound, the Inference entry in the experiment with Male Wistar rats (object recognition task) is “Active”. Also, the pKi at recombinant human 5-HT2A was 6.88.
